# Experimental data from patent US12496269B2, “Steamed Glycyrrhiza sp. extract with increased glycyrrhetinic acid contents and preparation method thereof” (LG Household & Health Care Ltd., priority 2021, dated 2025).
# Columns and labels:
# [1] = system: MNT-1 melanoma cells; assay: Whitening effect by inhibition of melanin production; format: cell-based; details: Homo sapiens, positive control at 200 μg/mL (200 ppm), 72 hours, vs control group, read-out: Melanin production inhibition rate (%)
# Protocol: In order to examine the whitening effect of the Glycyrrhiza sp. extract, 10 g of the Glycyrrhiza sp., which was not treated, steamed at 120° C., or roasted at 200° C. and steamed at 120° C., was extracted with 200 mL of 50% butylene glycol and filtered to prepare each extract.
# To culture MNT-1 melanoma cells, a mixture of DMEM (Dulbecco's Modified Eagle's Medium) and FBS (Fetal Bovine Serum) was used as a basic medium, and MNT-1 melanoma cells were dispensed in a 6-well plate at a density of 1×10^5 cells/mL to 2×10^5 cells/mL and cultured for 24 hours. Each extract was treated at a concentration of 0.1% in the cell culture solution, and then cultured for 72 hours. As a control group, 50% butylene glycol was used. Arbutin, which is a positive control, was treated at 200 μg/mL (200 ppm). […] Melanin in the precipitate was dissolved by adding 100 μL of 0.5 N sodium hydroxide solution and incubating for 12 hours, and absorbance at 450 nm was measured using an ELISA reader to measure the total amount of melanin produced. The total amount of melanin, of which production was inhibited as compared to the control group, was determined as the melanin production inhibition rate (%), and the experiment was conducted in triplicate, and then the average value was calculated (Table 5).
# [2] = system: Raw264.7 cells; assay: Anti-inflammatory effect by inhibition of NO production (lipopolysaccharide-stimulated); format: cell-based; details: positive control at 100 μM, lipopolysaccharide 500 ng/mL, 18 hours, vs control group
# Protocol: In order to examine the anti-inflammatory effect of the Glycyrrhiza sp. extract, 10 g of the Glycyrrhiza sp., which was not treated, steamed at 120° C., or roasted at 200° C. and steamed at 120° C., was extracted with 200 mL of 50% butylene glycol and filtered to prepare each extract.
# To culture Raw264.7 cells, a mixture of DMEM (Dulbecco's Modified Eagle's Medium) and FBS (Fetal Bovine Serum) was used as a basic medium, and Raw264.7 cells were dispensed in a 24-well plate at a density of 1×10^5 cells/mL to 2×10^5 cells/mL and cultured for 24 hours. After removing the medium and starving with a serum-free medium for 12 hours, each extract was treated at a concentration of 1% in the cell culture solution. 30 minutes later, lipopolysaccharide was added at a concentration of 500 ng/mL, followed by culturing for 18 hours. As a control group, 50% butylene glycol was used. L-NMMA, which is a positive control, was treated at 100 μM. After culturing, the supernatant was taken and transferred to a 96-well plate, and GRIESS reagent was added and reacted at room temperature for 15 minutes. Absorbance at 540 nm was measured using an ELISA reader. The total amount of NO, of which production was inhibited as compared to the control group, was determined as the NO production inhibition rate (%), and the experiment was conducted in triplicate, and then the average value was calculated (Table 6).
Compound,inhibition at 200 µg/mL [1] [%],NO production inhibition rate (%) [2] [%]
OC[C@H]1O[C@@H](Oc2ccc(O)cc2)[C@H](O)[C@@H](O)[C@@H]1O [Arbutin],19.7,
CNC(=N)NCCC[C@H](N)C(=O)O [L-NMMA],,60.9
